Laboratory results taken from paper PMC8786932, “Bicyclic azetidines target acute and chronic stages of Toxoplasma gondii by inhibiting parasite phenylalanyl t-RNA synthetase” (Nature Communications, 2022).
Several values for one entry are separate records, joined by “and”; a condition that tells them apart may be missing. Equal entries are not always repeated.

Key:
[1] = tested on: A549 (human lung carcinoma); assay: in vitro; type: cell-based; conditions: EC50 host cell/EC50 T. gondii
Experimental: (§1) For the toxicity screen, compounds were tested in 96-well plates using all the wells as no edge affect was observed. Compounds were diluted to 40 μM (2x concentration in 10% DMEM, 0.4% DMSO) before step-wise, 3-fold dilution in 10% DMEM to create 10-dose series (20 μM to 0.001 μM). Host cells were plated in black, μ-Clear 96-well plates (Greiner Bio-One). We compared several lineages including HepG2 (human hepatocellular carcinoma (ATCC-HB-8065)), THP-1 (human monocytic tumor line), SH-SY5Y (human neuroblastoma (ATCC CRL-2266)), A549 (human lung carcinoma (ATCC CRM-CCL-185)) and Caco-2 (human intestinal adenocarcinoma (ATCC HTB-37)) and HFF (primary human foreskin fibroblast) obtained from the laboratory of John Boothroyd at Stanford University. Cells were maintained in culture media according to the formulations recommended by ATCC. Cells were plated at a density (ranging from of 5 × 10^3 to 2 × 10^4 cells/well (100 μL vol)) resulting in sub-confluent monolayers to allow expansion during the 2 day growth assay. THP-1 cells were treated with 10 ng/ml phorbol 12-myristate 13-acetate (PMA) for 24 h to differentiate into macrophages before compound addition. For all other cells, compounds were added at 6 h post seeding to host cells containing plates (200 μL final volume, 0.2% DMSO) and incubated in culture medium at 37 °C supplemented with 5% CO2. At 44 h post compound addition (50 h total growth time), culture media was aspirated and replaced with Live Imaging solution (ThermoFisher) supplemented with 10 μg/mL Hoeschst 33342 (Sigma) for 20 min at 37 °C. […] Alternatively, plates fixed with 4% formaldehyde for 10 min and stained with 10 μg/mL Hoeschst 33342 (Sigma) for 20 min and imaged using a Cytation 3 multi-mode imager (DAPI, 10x objective, 4 images/well) and nuclei quantified using the Gen5 imager software (v3.08). Assays were repeated with two technical replicates within each of two independent biological replicates.
(§2) All statistical analyses were conducted using Prism 9 (GraphPad Software, Inc.). Dose–response inhibition curves for parasite and host cell toxicity screens (EC50 values) were generated using (Log(inhibitor) vs. normalized response—Variable slope) function. […] For multiple comparisons, two-way ANOVA analysis function using either Sidák’s multiple comparisons test or Dunnett’s multiple comparisons test was applied as indicated.

[2] = tested on: in vitro induced T. gondii ME49-FLuc bradyzoite cysts; assay: In vitro bradyzoite growth assay, cyst size (3 d induction + 2 d treatment); type: cell-based, Toxoplasma gondii; conditions: for Cyst size (individual cysts): area within cyst wall, measured in microns; for effect on cyst size: at the EC90 or 3xEC90, 2 days after 3 days induction
Experimental: To monitor the effects of compounds on early bradyzoite differentiation, ME49-Fluc tachyzoites were inoculated onto HFF monolayers grown on coverslips in 24-well plates and allowed infect during a 2 h incubation in 3% DMEM (DMEM containing glutamine (10 mM), gentamycin (10 μg/mL,) and 3% FBS) at 37°C, 5% CO2. The medium was replaced with RPMI 1640 pH 8.2 and cells were cultured in ambient CO2 at 37°C for 3 days to induce bradyzoites. […] Samples were fixed and stained using biotinylated Dolichos biflorus lectin (DBL) (Vector Laboratories (#B-1035-5) […]) followed by Alexa Fluor 488 streptavidin (Thermo Fischer (#S11223) 1:1,000 dilution) and mouse mAb 8.25.8 anti-BAG1 (from Dr. Louis Wiess) (1:1,100)[56] followed by goat anti-mouse IgG conjugated to Alexa Fluor 568 (Thermo Fischer (#A-1104) 1:1,000). Samples were analyzed using a Zeiss AxioObserver Z1 equipped with Colibri LED illumination using a 40x EC Plan-Neofluar objective (N.A. 1.3) and images were captured using an ORCA-ER digital camera operated using ZEN v3.3 (Carl Zeiss). Cyst size was determined by measuring the area defined by the perimeter of the cyst wall as measured in microns.

[3] = tested on: HepG2 (human hepatocellular carcinoma); assay: in vitro; type: cell-based; conditions: EC50 host cell/EC50 T. gondii
Experimental: as §1, §2

[4] = target: T1, recombinant wild-type TgPheRS (Toxoplasma gondii, UniProt A0A125YPN6); assay: Malachite green aminoacylation enzyme assay, wild-type TgPheRS; type: biochemical; conditions: for Tg PheRS enzyme assay raw signal: replicates
T1 sequence (A0A125YPN6 1-525): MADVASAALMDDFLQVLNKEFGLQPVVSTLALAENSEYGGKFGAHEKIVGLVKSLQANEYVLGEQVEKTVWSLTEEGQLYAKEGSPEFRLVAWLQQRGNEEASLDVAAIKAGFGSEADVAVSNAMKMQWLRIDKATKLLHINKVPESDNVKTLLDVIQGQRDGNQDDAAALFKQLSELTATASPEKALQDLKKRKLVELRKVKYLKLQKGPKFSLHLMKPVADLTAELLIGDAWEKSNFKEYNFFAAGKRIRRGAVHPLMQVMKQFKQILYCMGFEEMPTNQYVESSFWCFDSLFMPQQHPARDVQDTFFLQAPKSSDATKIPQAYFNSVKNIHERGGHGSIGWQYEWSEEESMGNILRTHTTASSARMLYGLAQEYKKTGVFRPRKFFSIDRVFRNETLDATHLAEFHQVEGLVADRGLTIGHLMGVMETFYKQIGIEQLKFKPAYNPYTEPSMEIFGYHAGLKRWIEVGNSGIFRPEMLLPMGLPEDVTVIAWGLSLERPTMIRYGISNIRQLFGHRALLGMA
T1 sequence (S8EZ50 1-675 partner): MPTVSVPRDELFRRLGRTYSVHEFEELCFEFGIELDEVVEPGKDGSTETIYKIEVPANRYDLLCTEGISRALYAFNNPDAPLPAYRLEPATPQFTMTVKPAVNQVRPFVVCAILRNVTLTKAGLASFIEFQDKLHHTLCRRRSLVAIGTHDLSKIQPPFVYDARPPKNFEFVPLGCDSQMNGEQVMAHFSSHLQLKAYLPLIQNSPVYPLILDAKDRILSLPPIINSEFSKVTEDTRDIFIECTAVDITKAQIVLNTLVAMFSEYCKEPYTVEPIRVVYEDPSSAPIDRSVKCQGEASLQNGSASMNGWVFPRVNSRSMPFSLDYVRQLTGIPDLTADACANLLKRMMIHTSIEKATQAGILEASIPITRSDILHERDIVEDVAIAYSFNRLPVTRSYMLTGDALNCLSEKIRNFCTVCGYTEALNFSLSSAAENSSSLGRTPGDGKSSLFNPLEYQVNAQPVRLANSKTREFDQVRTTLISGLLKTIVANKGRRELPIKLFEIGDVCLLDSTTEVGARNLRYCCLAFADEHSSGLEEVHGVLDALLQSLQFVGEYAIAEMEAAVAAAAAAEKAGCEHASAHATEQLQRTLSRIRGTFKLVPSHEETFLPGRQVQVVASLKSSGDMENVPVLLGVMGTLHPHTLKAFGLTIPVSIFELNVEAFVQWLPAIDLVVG

Row | Structure (SMILES) | A549 fold selectivity [1] [fold] | Cyst size (individual cysts) ([2]; 3XEC90, 2 days) | Cyst size (individual cysts) ([2]; EC90, 2 days) | effect on cyst size [2] | HEPG2 fold selectivity [3] [fold] | IC50 [4] [nM] | Tg PheRS enzyme assay raw signal ([4]; BRD7929 0.000001 μM) | Tg PheRS enzyme assay raw signal ([4]; BRD7929 0.000010 μM) | Tg PheRS enzyme assay raw signal ([4]; BRD7929 0.000100 μM) | Tg PheRS enzyme assay raw signal ([4]; BRD7929 0.001000 μM) | Tg PheRS enzyme assay raw signal ([4]; BRD7929 0.010000 μM) | Tg PheRS enzyme assay raw signal ([4]; BRD7929 0.100000 μM) | Tg PheRS enzyme assay raw signal ([4]; BRD7929 1.000000 μM) | Tg PheRS enzyme assay raw signal ([4]; BRD7929 10.000000 μM) | Tg PheRS enzyme assay raw signal ([4]; BRD7929 100.000000 μM) | enzyme assay readout (raw, malachite green, 620 nm) ([4]; WT, BRD7929 100.000000 μM)
1 | CN(C[C@@H]1[C@H](c2ccc(C#Cc3ccccc3)cc2)[C@@H]2CN(C(=O)Nc3ccc(OC4CC4)cc3)CCCCN12)S(C)(=O)=O [BRD2987] | 114.0 | 210 and 276.2 and 29.32 and 152.5 and 78.3 and 34.32 and 25.15 and 91.33 and 112.7 and 36.9 and 64.42 and 29.43 and 70.1 and 40.53 and 119.9 and 26.89 and 53.28 and 150.6 and 151.3 and 93.74 | 236.6 and 67.46 and 53.54 and 238 and 123.3 and 64.95 and 39.29 and 138.8 and 102.4 and 187.5 and 285.6 and 103.1 and 283.5 and 243.7 and 89.72 and 170.5 and 68.94 and 144.9 and 116.2 and 59.27 | significantly diminished cyst size |  |  |  |  |  |  |  |  |  |  |  | 
2 | COc1ccc(NC(=O)N2CCCCN3[C@H](CO)[C@H](c4ccc(C#Cc5ccccc5)cc4)[C@@H]3C2)cc1 [BRD3444] |  | 55.84 and 108.4 and 18.78 and 55.57 and 227.1 and 49.46 and 37.83 and 273.6 and 101.6 and 179.3 and 249.8 and 34.55 and 88.71 and 51.38 and 34.99 and 140.8 and 42.55 and 30.36 and 52.48 and 90.45 | 20.97 and 95.37 and 274.5 and 251.3 and 190.7 and 326.2 and 209.9 and 125.4 and 65.68 and 59.54 and 81.3 and 20.04 and 43.73 and 427 and 253.3 and 87.22 and 217.7 and 114.5 and 214.1 and 137.7 | significantly diminished cyst size | 390.6 |  |  |  |  |  |  |  |  |  |  | 
3 | COc1ccc(NC(=O)N2CCCCN3[C@H](CN(C)C)[C@H](c4ccc(C#Cc5ccccc5)cc4)[C@@H]3C2)cc1 [BRD7929] |  | 70.79 and 76.24 and 90.26 and 38.16 and 85.34 and 130.5 and 42.83 and 30.86 and 19.37 and 49.32 and 117.9 and 50.48 and 21.2 and 120.5 and 75.85 and 64.97 and 70.16 and 108.7 and 69.23 and 113 | 112.8 and 142 and 65 and 40.33 and 94.48 and 106.3 and 167.8 and 104.7 and 129.7 and 105.6 and 65.07 and 56.59 and 80.88 and 43.39 and 143.9 and 81.69 and 71.88 and 171.2 and 68.84 and 66.51 | significantly diminished cyst size |  | 31 | 0.2010 (2×) and 0.1986 | 0.1950 and 0.1940 and 0.1990 | 0.1980 and 0.1900 and 0.1990 | 0.1940 and 0.1790 and 0.1870 | 0.1697 and 0.1750 and 0.1724 | 0.1290 and 0.1332 and 0.1400 | 0.1100 and 0.1180 and 0.1090 | 0.0928 and 0.1144 and 0.1108 | 0.1051 and 0.0940 and 0.1066 | 0.1051 and 0.0940 and 0.1066
4 | COc1ccc(NC(=O)N2CCCCN3[C@H](CN(C)S(C)(=O)=O)[C@H](c4ccc(C#Cc5ccccc5)cc4)[C@@H]3C2)cc1 [BRD8494] | > 571.4 | 46.64 and 167.1 and 52.11 and 128.7 and 180.9 and 64.9 and 103 and 36.82 and 65.28 and 41.9 and 105.7 and 87.22 and 144.1 and 114.5 and 214.1 and 103.8 and 343.4 and 159.3 and 37.35 and 133.8 | 112 and 360 and 182.2 and 110.4 and 32.16 and 37.14 and 75.73 and 23.46 and 145.9 and 108.1 and 145.1 and 279 and 170.3 and 246.7 and 83.16 and 29.6 and 216.4 and 92.48 and 64.36 and 16.16 | significantly diminished cyst size | 571.4 |  |  |  |  |  |  |  |  |  |  | 
